# Test results reported in patent US20220089609A1, “SUBSTITUTED QUINAZOLINONE DERIVATIVES AND THEIR USE AS POSITIVE ALLOSTERIC MODULATORS OF MGLUR4” (DOMAIN THERAPEUTICS, priority 2018, published 2022).
# Assays:
# human mGluR4 (hmGluR4) = biological target: T1, human mGluR4 (hmGluR4) (Homo sapiens, UniProt Q14833); experiment: Calcium assay EC50 determination, positive allosteric modulator activity on hmGluR4 transiently over-expressed in HEK-293 cells; assay type: cell-based; settings: PAM mode with EC20 glutamate; hmGluR4 in HEK-293 cells; intracellular calcium (Fluo4AM); read-out: mGluR4 positive allosteric modulator activity, half maximal effective concentration (EC50)
# T1 construct: expressed in transfected cells; host or cells: HEK-293 cells, transient co-transfection by electroporation
# T1 sequence (Q14833 33-912): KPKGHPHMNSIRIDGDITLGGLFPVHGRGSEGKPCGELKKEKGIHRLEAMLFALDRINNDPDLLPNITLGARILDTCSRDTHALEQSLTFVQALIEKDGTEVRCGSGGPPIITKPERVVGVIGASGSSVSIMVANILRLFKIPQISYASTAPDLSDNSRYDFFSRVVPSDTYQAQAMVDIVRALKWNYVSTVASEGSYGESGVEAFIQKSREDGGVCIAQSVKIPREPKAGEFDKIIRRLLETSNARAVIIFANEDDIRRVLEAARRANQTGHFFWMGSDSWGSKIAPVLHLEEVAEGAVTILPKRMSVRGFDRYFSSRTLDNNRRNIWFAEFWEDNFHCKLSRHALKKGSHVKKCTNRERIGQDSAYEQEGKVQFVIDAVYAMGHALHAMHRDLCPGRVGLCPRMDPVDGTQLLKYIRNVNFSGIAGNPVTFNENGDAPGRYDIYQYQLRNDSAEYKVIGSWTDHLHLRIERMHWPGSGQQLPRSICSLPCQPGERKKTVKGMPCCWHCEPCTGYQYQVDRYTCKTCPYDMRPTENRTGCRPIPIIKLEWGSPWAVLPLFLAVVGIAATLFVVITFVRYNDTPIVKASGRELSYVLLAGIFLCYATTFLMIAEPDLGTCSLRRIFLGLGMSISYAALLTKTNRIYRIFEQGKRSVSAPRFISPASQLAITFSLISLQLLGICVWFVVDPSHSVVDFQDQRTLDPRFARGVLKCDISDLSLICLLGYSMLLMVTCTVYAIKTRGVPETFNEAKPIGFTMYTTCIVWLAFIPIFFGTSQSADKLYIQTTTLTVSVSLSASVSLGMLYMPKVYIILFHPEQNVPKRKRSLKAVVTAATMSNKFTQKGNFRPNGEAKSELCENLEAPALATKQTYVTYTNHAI
# Procedure, shortened: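 HEK-293 cells transiently co-transfected with hmGluR4, chimeric G protein and glutamate transporters; Fluo4AM calcium read (ex 485/em 525 nm) on FLIPR Tetra. Compound alone 10 min for agonism, then EC20 glutamate with 3 min recording for PAM activity, versus buffer or EC20 glutamate basal.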
SMILES,melting point [°C],EC50 (human mGluR4 (hmGluR4)) [nM]
"Cc1cc(CCN2CCN(C)C(=O)C2)cc2c(=O)[nH]c(-c3cc4ccsc4cn3)nc12.Cl [Compound 142, 8-Methyl-6-[2-(4-methyl-3-oxo-piperazin-1-yl)ethyl]-2-thieno[2,3-c]pyridin-5-yl-3H-quinazolin-4-one hydrochloride]",> 250,100 to 1000
"COCCOc1ccc2nc(-c3cc4cccn4cn3)[nH]c(=O)c2c1 [Compound 34, 6-(2-Methoxy-ethoxy)-2-pyrrolo[1,2-c]pyrimidin-3-yl-3H-quinazolin-4-one]",181 to 187,> 10000
"Cc1cc(CN2CCOCC2)cc2c(=O)[nH]c(-c3cc4cccn4cn3)nc12.Cl [Compound 125, 8-Methyl-6-(morpholinomethyl)-2-pyrrolo[1,2-c]pyrimidin-3-yl-3H-quinazolin-4-one hydrochloride]",> 250,≤ 100
"O=c1[nH]c(-c2cc3cccn3cn2)nc2ccc(OCCCc3ccncc3)cc12 [Compound 1, 6-(3-pyridin-4-yl-propoxy)-2-pyrrolo[1,2-c]pyrimidin-3-yl-3H-quinazolin-4-one]",202 to 206,100 to 1000
"Cc1cc(CN2CCCC2)cc2c(=O)[nH]c(-c3cc4ccsc4cn3)nc12.Cl [Compound 133, 8-Methyl-6-(pyrrolidin-1-ylmethyl)-2-thieno[2,3-c]pyridin-5-yl-3H-quinazolin-4-one hydrochloride]",> 250,1000 to 10000
"Cl.O=c1[nH]c(-c2ccc(F)cn2)nc2ccc(OCCCc3ccncc3)cc12 [Compound 8, 2-(5-Fluoro-pyridin-2-yl)-6-(3-pyridin-4-yl-propoxy)-3H-quinazolin-4-one hydrochloride]",> 250,1000 to 10000
"Cc1cc(CN2CCS(=O)(=O)CC2)cc2c(=O)[nH]c(-c3cc4sccc4cn3)nc12 [Compound 150, 6-[(1,1-Dioxo-1,4-thiazinan-4-yl)methyl]-8-methyl-2-thieno[3,2-c]pyridin-6-yl-3H-quinazolin-4-one]",245 to 250,≤ 100
"Cc1cc(CCN2CCC(O)CC2)cc2c(=O)[nH]c(-c3cc(C(F)(F)F)ccn3)nc12.Cl [Compound 164, 6-(2-(4-hydroxypiperidin-1-yl)ethyl)-8-methyl-2-(4-(trifluoromethyl)pyridin-2-yl)quinazolin-4(3H)-one hydrochloride]",115 to 125,100 to 1000
"Cc1cc(CCN2CCCCC2)cc2c(=O)[nH]c(-c3cnc4sccc4c3)nc12.Cl [Compound 128, 8-Methyl-6-(2-piperidin-1-yl-ethyl)-2-thieno[2,3-b]pyridin-5-yl-3H-quinazolin-4-one hydrochloride]",> 250,1000 to 10000
"Cc1cc(CCN2CCC(F)(F)CC2)cc2c(=O)[nH]c(-c3cc(C(F)(F)F)ccn3)nc12.Cl [Compound 165, 6-(2-(4,4-difluoropiperidin-1-yl)ethyl)-8-methyl-2-(4-(trifluoromethyl)pyridin-2-yl)quinazolin-4(3H)-one hydrochloride]",240 to 250,100 to 1000
"COC1CCN(CCc2cc(C)c3nc(-c4cc(C(F)(F)F)ccn4)[nH]c(=O)c3c2)CC1.Cl [Compound 166, 6-(2-(4-methoxypiperidin-1-yl)ethyl)-8-methyl-2-(4-(trifluoromethyl)pyridin-2-yl)quinazolin-4(3H)-one hydrochloride]",> 250,100 to 1000
"COc1ccnc(-c2nc3ccc(OCCCc4ccncc4)cc3c(=O)[nH]2)c1.Cl [Compound 7, 2-(4-methoxy-pyridin-2-yl)-6-(3-pyridin-4-yl-propoxy)-3H-quinazolin-4-one hydrochloride]",> 250,1000 to 10000
"Cc1cc(CC(=O)N2CCOCC2)cc2c(=O)[nH]c(-c3cc4ccsc4cn3)nc12 [Compound 127, 8-Methyl-6-(2-morpholino-2-oxo-ethyl)-2-thieno[2,3-c]pyridin-5-yl-3H-quinazolin-4-one]",> 250,100 to 1000
